The subject of one assay is PDL-1. The assay can be described thus: PDL-1 gene expression by qRT-PCR, human MDA-MB-231 xenograft tumors. Format: in vivo. Conditions: human tumors in immune compromised mice, 4-5 mice each group. The text has this:
Data represented as mean±SEM.
(In qPCR the cycle at which signal appears reflects the starting amount.)

The next assay deals with HLA-DRB5 (MHC II). The experiment in a line: IFN stimulated gene expression by qRT-PCR (HLA-DRB5), TNBC human xenograft tumors. Format: in vivo. Conditions: single components vs combination. How it is done:
It was tested in 6 treated and 5 untreated tumors. *P<0.05, **P<0.01, ***P<0.005, ****P<0.001. Data represented as mean±SEM.

As for `Nc1ncn([C@H]2C[C@H](O)[C@@H](CO)O2)c(=O)n1` [DAC, decitabine], the “relative gene expression of PDL-1, increase” value with PDL-1 stood at 2 fold. In addition, the “HLA-DRB5 (MHC II) gene expression” value in the assay with HLA-DRB5 (MHC II) is given as “no significant effect”.

Take `O=C(O[C@@H]1Cc2c(O)cc(O)cc2O[C@@H]1c1cc(O)c(O)c(O)c1)c1cc(O)c(O)c(O)c1` [EGCG, epigallocatechin gallate]: the “HLA-DRB5 (MHC II) gene expression” value with HLA-DRB5 (MHC II) is reported as “no significant effect”.

Values taken from patent US12648927B2, “Compositions and methods of enhancing immunotherapies” (Cha Therapeutics, Inc., priority 2018, dated 2026).
